In US4401812A, “Anthracycline antibiotics” (Hoffmann-La Roche Inc., priority 1980, dated 1983):
Values after ≈ are worked out from the molar mass of the structure shown. Where two headings read alike, the source gives them in different places.

Columns and labels:
[1] = tested on: Staphylococcus aureus 209P IAM-1011; experiment: in vitro MIC, agar streak method; type: cell-based; conditions: Heart infusion agar
[2] = tested on: Bacillus subtilis IAM-1027; experiment: in vitro MIC, agar streak method; type: cell-based
Description: (§1) | ^(1) Heart infusion agar

[3] = tested on: Escherichia coli K-12 IAM-1264; experiment: in vitro MIC, agar streak method; type: cell-based
Description: as §1

[4] = tested on: Escherichia coli NIHJ IFO-12734; experiment: in vitro MIC, agar streak method; type: cell-based
Description: as §1

[5] = tested on: Micrococcus flavus ATCC-10240; experiment: in vitro MIC, agar streak method; type: cell-based
Description: as §1

[6] = tested on: Mycobacterium smegmatis IFO-13167; experiment: in vitro MIC, agar streak method; type: cell-based; conditions: Mycolicibacterium smegmatis, IFO13167
Description: as §1

[7] = tested on: Pseudomonas aeruginosa IFO-12689; experiment: in vitro MIC, agar streak method; type: cell-based; conditions: IFO12689, Heart infusion agar
Description: as §1

[8] = tested on: Staphylococcus aureus 209P Stf; experiment: in vitro MIC, agar streak method; type: cell-based; conditions: Heart infusion agar
Description: as §1

Sarcina lutea IAM1009 = experiment: in vitro MIC, agar streak method; type: cell-based; conditions: Heart infusion agar
[9] = tested on: Candida albicans ATCC-10231; experiment: in vitro MIC, agar streak method; type: cell-based
Description: (§2) | ^(2) Sabouraud dextrose agar

[10] = tested on: Candida tropicalis ATCC-13803; experiment: in vitro MIC, agar streak method; type: cell-based
Description: as §2

in vivo = conditions: mouse, ip, mice, single i.p. injection, judged 72 hours after, read-out: acute intraperitoneal LD50
Protocol: The acute intraperitoneal LD50 in mice judged 72 hours after a single injection of the antibiotics is about 90 mg/kg for auramycin C, auramycin D, sulfurmycin C and sulfurmycin D, 40~80 mg/kg for auramycin G and sulfurmycin G and 20~40 mg/kg for auramycin E and sulfurmycin E.

P388 leukaemia = experiment: Antitumor effect against P388 leukaemia in CDF1 mice; type: in vivo; conditions: Mus musculus, read-out: Mean survival (T/C, %); for response vs control in vivo at 3.75 mg/kg: 3.75 mg/kg/day i.p.; for response vs control in vivo at 7.5 mg/kg: 7.5 mg/kg/day i.p.; for response vs control in vivo at 15 mg/kg: 15.0 mg/kg/day i.p.
Protocol: The anthracycline glycosides provided by the present invention were tested against P388 leukaemia in mice. When CDF1 mice are inoculated with 1×10^6 cells of P388 intraperitoneally and each of the antibiotics is administered intraperitoneally on days 1, 5 and 9, the survival time of the treated mice is prolonged as shown in Table 5 hereinafter.

Bacillus cereus Rol79B = experiment: in vitro MIC, agar streak method; type: cell-based; conditions: Heart infusion agar
Description: as §1

[11] = tested on: Staphylococcus epidermidis IFO-12993; experiment: in vitro MIC, agar streak method; type: cell-based; conditions: Heart infusion agar
Description: as §1

[12] = IAM1027, Bacillus subtilis IAM-1027, Heart infusion agar, read-out: MIC
[13] = IAM1264, Escherichia coli K-12 IAM-1264, Heart infusion agar, read-out: MIC
[14] = IFO12734, Escherichia coli NIHJ IFO-12734, Heart infusion agar, read-out: MIC
[15] = ATCC10240, Micrococcus flavus ATCC-10240, Heart infusion agar, read-out: MIC
[16] = Micrococcus luteus, IAM1009, Sarcina lutea IAM-1009, read-out: MIC
[17] = ATCC10231, Candida albicans ATCC-10231, Sabouraud dextrose agar, read-out: MIC
[18] = ATCC13803, Candida tropicalis ATCC-13803, Sabouraud dextrose agar, read-out: MIC
[19] = ip, days 1, 5 and 9, 1×10^6 P388 cells i.p., CDF1 mice
[20] = Staphylococcus aureus, read-out: MIC
[21] = Micrococcus flavus, ATCC10240, Micrococcus flavus ATCC-10240, Heart infusion agar, read-out: MIC
[22] = Staphylococcus epidermidis IFO-12993
[23] = ip, 1.5 mg/kg/day i.p., days 1, 5 and 9, 1×10^6 P388 cells i.p., CDF1 mice
[24] = ip, 3.0 mg/kg/day i.p., days 1, 5 and 9, 1×10^6 P388 cells i.p., CDF1 mice
[25] = ip, 6.0 mg/kg/day i.p., days 1, 5 and 9, 1×10^6 P388 cells i.p., CDF1 mice
[26] = ip, 12.0 mg/kg/day i.p., days 1, 5 and 9, 1×10^6 P388 cells i.p., CDF1 mice
[27] = Staphylococcus epidermidis, IFO12993, Staphylococcus epidermidis IFO-12993, read-out: MIC
[28] = Bacillus subtilis IAM-1027, Heart infusion agar
[29] = Escherichia coli K-12 IAM-1264, Heart infusion agar
[30] = Escherichia coli NIHJ IFO-12734, Heart infusion agar
[31] = Micrococcus flavus ATCC-10240, Heart infusion agar
[32] = Candida albicans ATCC-10231, Sabouraud dextrose agar
[33] = Candida tropicalis ATCC-13803, Sabouraud dextrose agar

Row | Structure (SMILES) | MIC ([1]; read-out: MIC) | MIC [2, 12] | MIC [3, 13] | MIC [4, 14] | MIC (Sarcina lutea IAM1009; [16]) | MIC [9, 17] | MIC [10, 18] | LD50 at 72 h (in vivo) | MIC [1, 20] | MIC (Bacillus cereus Rol79B; read-out: MIC) | MIC [5, 21] | MIC [11, 22] | response vs control in vivo at 1.5 mg/kg (P388 leukaemia; [23]) | response vs control in vivo at 3 mg/kg (P388 leukaemia; [24]) | response vs control in vivo at 6 mg/kg (P388 leukaemia; [25]) | response vs control in vivo at 12 mg/kg (P388 leukaemia; [26]) | other results
1 | COC(=O)C1c2cc3c(c(O)c2C(OC2CC(N(C)C)C(OC4CC(O)C(O)C(C)O4)C(C)O2)CC1(C)O)C(=O)c1c(O)cccc1C3=O (stereo not shown) [Auramycin C] | 6.25 µg/mL (≈ 9.11 µM) | 6.25 µg/mL (≈ 9.11 µM) | > 50 µg/mL | > 50 µg/mL | 6.25 µg/mL (≈ 9.11 µM) | > 50 µg/mL | > 50 µg/mL | ~90 mg/kg |  |  |  |  |  |  |  |  | MIC [5, 15]: 6.25 µg/mL (≈ 9.11 µM); MIC [6]: 6.25 µg/mL (≈ 9.11 µM); MIC [7]: > 50 µg/mL; MIC [8]: 6.25 µg/mL (≈ 9.11 µM); response vs control in vivo at 1.88 mg/kg (P388 leukaemia; ip, 1.88 mg/kg/day i.p., days 1, 5 and 9, 1×10^6 P388 cells i.p., CDF1 mice): 135%; response vs control in vivo at 3.75 mg/kg (P388 leukaemia; [19]): 130%; response vs control in vivo at 7.5 mg/kg (P388 leukaemia; [19]): 141%; response vs control in vivo at 15 mg/kg (P388 leukaemia; [19]): 128%
2 | COC(=O)C1c2cc3c(c(O)c2C(OC2CC(N(C)C)C(OC4CC(O)C(OC5CCC(O)C(C)O5)C(C)O4)C(C)O2)CC1(O)CC(C)=O)C(=O)c1c(O)cccc1C3=O (stereo not shown) [Sulfurmycin E] |  | 3.12 µg/mL (≈ 3.71 µM) | > 50 µg/mL | > 50 µg/mL | 3.12 µg/mL (≈ 3.71 µM) | > 50 µg/mL | > 50 µg/mL | 20 to 40 mg/kg | 3.12 µg/mL (≈ 3.71 µM) | 0.39 µg/mL (≈ 0.463 µM) | 3.12 µg/mL (≈ 3.71 µM) | 1.56 µg/mL (≈ 1.85 µM) | 133% | 140% | 150% | 165% | 
3 | COC(=O)C1c2cc3c(c(O)c2C(OC2CC(N(C)C)C(OC4CCC(OC5CCC(O)C(C)O5)C(C)O4)C(C)O2)CC1(C)O)C(=O)c1c(O)cccc1C3=O (stereo not shown) [Auramycin G] |  | 12.5 µg/mL (≈ 15.9 µM) | > 50 µg/mL | > 50 µg/mL | 6.25 µg/mL (≈ 7.97 µM) | > 50 µg/mL | > 50 µg/mL | 40 to 80 mg/kg | 6.25 µg/mL (≈ 7.97 µM) | 0.78 µg/mL (≈ 0.995 µM) | 6.25 µg/mL (≈ 7.97 µM) |  | 102% | 109% | 105% | 119% | MIC [11, 27]: 6.25 µg/mL (≈ 7.97 µM)
4 | COC(=O)C1c2cc3c(c(O)c2C(OC2CC(N(C)C)C(OC4CCC(OC5CCC(O)C(C)O5)C(C)O4)C(C)O2)CC1(O)CC(C)=O)C(=O)c1c(O)cccc1C3=O (stereo not shown) [Sulfurmycin G] | 6.25 µg/mL (≈ 7.57 µM) |  |  |  | 12.5 µg/mL (≈ 15.1 µM) |  |  | 40 to 80 mg/kg |  | 0.39 µg/mL (≈ 0.472 µM) |  |  |  |  |  |  | MIC ([2]; Bacillus subtilis, IAM1027): 6.25 µg/mL (≈ 7.57 µM); MIC ([3]; Escherichia coli, IAM1264): > 50 µg/mL; MIC ([4]; Escherichia coli, IFO12734): > 50 µg/mL; MIC ([5]; Micrococcus flavus, ATCC10240): 12.5 µg/mL (≈ 15.1 µM); MIC ([11]; IFO12993, Staphylococcus epidermidis IFO-12993, read-out: MIC): 12.5 µg/mL (≈ 15.1 µM); MIC ([9]; Candida albicans, ATCC10231): > 50 µg/mL; MIC ([10]; Candida tropicalis, ATCC13803): > 50 µg/mL; response vs control in vivo at 1.5 mg/kg (P388 leukaemia; P388, ip): 104%; response vs control in vivo at 3 mg/kg (P388 leukaemia; P388, ip): 112%; response vs control in vivo at 6 mg/kg (P388 leukaemia; P388, ip): 113%; response vs control in vivo at 12 mg/kg (P388 leukaemia; P388, ip): 123%; response vs control in vivo at 24 mg/kg (P388 leukaemia; P388, ip): 144%
5 | COC(=O)C1c2cc3c(c(O)c2C(OC2CC(N(C)C)C(OC4CC(O)C(OC5CCC(O)C(C)O5)C(C)O4)C(C)O2)CC1(C)O)C(=O)c1c(O)cccc1C3=O (stereo not shown) [Auramycin F] |  |  |  |  |  |  |  |  |  |  |  | 3.12 µg/mL (≈ 3.9 µM) |  |  |  |  | MIC [1]: 3.12 µg/mL (≈ 3.9 µM); MIC (Bacillus cereus Rol79B): 0.39 µg/mL (≈ 0.488 µM); MIC [2, 28]: 3.12 µg/mL (≈ 3.9 µM); MIC [3, 29]: > 50 µg/mL; MIC [4, 30]: > 50 µg/mL; MIC [5, 31]: 3.12 µg/mL (≈ 3.9 µM); MIC (Sarcina lutea IAM1009; Sarcina lutea IAM-1009): 3.12 µg/mL (≈ 3.9 µM); MIC [9, 32]: > 50 µg/mL; MIC [10, 33]: > 50 µg/mL
6 | COC(=O)C1c2cc3c(c(O)c2C(OC2CC(N(C)C)C(O)C(C)O2)CC1(C)O)C(=O)c1c(O)cccc1C3=O (stereo not shown) [Auramycin D] | 12.5 µg/mL (≈ 22.5 µM) | 12.5 µg/mL (≈ 22.5 µM) | > 50 µg/mL | > 50 µg/mL | 6.25 µg/mL (≈ 11.2 µM) | > 50 µg/mL | > 50 µg/mL | ~90 mg/kg |  |  |  |  |  |  |  |  | MIC [5, 15]: 12.5 µg/mL (≈ 22.5 µM); MIC ([6]; Mycobacterium smegmatis IFO-13167, Heart infusion agar, read-out: MIC): 3.13 µg/mL (≈ 5.63 µM); MIC [7]: > 50 µg/mL; MIC [8]: 12.5 µg/mL (≈ 22.5 µM); response vs control in vivo at 3.75 mg/kg (P388 leukaemia; [19]): 103%; response vs control in vivo at 7.5 mg/kg (P388 leukaemia; [19]): 149%; response vs control in vivo at 15 mg/kg (P388 leukaemia; [19]): 141%
7 | COC(=O)C1c2cc3c(c(O)c2C(OC2CC(N(C)C)C(OC4CC(O)C(OC5CCC(O)C(C)O5)C(C)O4)C(C)O2)CC1(O)CC(C)=O)C(=O)c1c(O)cccc1C3=O (stereo not shown) [Sulfurmycin F] |  |  |  |  |  |  |  |  |  |  |  | 12.5 µg/mL (≈ 14.8 µM) |  |  |  |  | MIC [1]: 3.12 µg/mL (≈ 3.71 µM); MIC (Bacillus cereus Rol79B): 0.39 µg/mL (≈ 0.463 µM); MIC [2, 28]: 3.12 µg/mL (≈ 3.71 µM); MIC [3, 29]: > 50 µg/mL; MIC [4, 30]: > 50 µg/mL; MIC [5, 31]: 1.56 µg/mL (≈ 1.85 µM); MIC (Sarcina lutea IAM1009; Sarcina lutea IAM-1009): 1.56 µg/mL (≈ 1.85 µM); MIC [9, 32]: > 50 µg/mL; MIC [10, 33]: > 50 µg/mL
8 | COC(=O)C1c2cc3c(c(O)c2C(OC2CC(N(C)C)C(OC4CC(O)C(OC5CCC(O)C(C)O5)C(C)O4)C(C)O2)CC1(C)O)C(=O)c1c(O)cccc1C3=O (stereo not shown) [Auramycin E] |  | 3.12 µg/mL (≈ 3.9 µM) | > 50 µg/mL | > 50 µg/mL | 3.12 µg/mL (≈ 3.9 µM) | > 50 µg/mL | > 50 µg/mL | 20 to 40 mg/kg | 1.56 µg/mL (≈ 1.95 µM) | 0.39 µg/mL (≈ 0.488 µM) | 3.12 µg/mL (≈ 3.9 µM) |  | 131% | 139% | 158% | 165% | MIC [11, 27]: 3.12 µg/mL (≈ 3.9 µM)
